Active and inactive are the calls of the source.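 Rule for the calls: active = AC50 no more than ten times the top concentration tested, that is within one log above it; inconclusive = flat curve fit with activity between 30% and 70%, or invalid poor fit; inactive = AC50 beyond ten times the top tested dose.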 Some results are limits rather than exact numbers.

The AC50 is the concentration at which the activity in the assay is half-maximal.

In this experiment the test system is S. cerevisiae Mot1-301 ts growth rescue, BacTiter-Glo ATP luminescence. In words: growth rescue of Mot1-301 ts yeast, confirmation, SUMOylation pathway inhibitor project, whole organism, S. cerevisiae, Mot1-301 ts mutant, luminescence, dose retest (AID 463204).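 Note: growth at restrictive 38.5 degrees C of Mot1-301 OY566 strain; actives raise luminescence by restoring growth of the ts mutant at high temperature.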
In the case of `O=C(Nc1cccc(Cl)c1)OCc1cncs1`, the AC50 was > 42 µM (inactive). `COc1ccc(C(=O)NCCSc2ccc(C)cc2)cc1`: the AC50 is > 42 µM (inactive).

Consider `Cc1cc([N+](=O)[O-])ccc1NC(=O)CSc1nccc(=O)[nH]1`, for which the AC50 is > 42 µM (inactive).

Take `COc1ccccc1N1CCN(C(=O)c2sc3ncnc(N4CCN(c5ccccn5)CC4)c3c2C)CC1`: the AC50 is > 42 µM (inactive).

Consider `CCOC(=O)C1=C[C@]2(CC)CCCN3CCc4c(n1c1ccccc41)[C@@H]32`, for which the AC50 was > 42 µM (inactive). For the molecule `COc1ccccc1/C=C/C(=O)c1c2c(c(C)[nH]c1=O)CCCC2`, the AC50 is > 42 µM (inactive). Consider `COc1ccccc1NC(=S)N(Cc1ccco1)Cc1cc2cccc(C)c2[nH]c1=O`, for which the AC50 is > 42 µM (inactive).

In the case of `Cc1nc2ccc(NC(=O)c3ccc(S(=O)(=O)N4CCOCC4)cc3)cc2s1`, the AC50 is > 42 µM (inactive).

Turning to `Cc1ccnc(NC(=O)c2ccc(Br)s2)c1`, the AC50 was > 42 µM (inactive).

Take `CC(=O)NC1CCCN(O)C(=O)/C=C(\C)CCOC(=O)C(NC(C)=O)CCCN(O)C(=O)/C=C(\C)CCOC(=O)C(NC(C)=O)CCCN(O)C(=O)/C=C(\C)CCOC1=O` (stereo not drawn): the AC50 is > 42 µM (inactive). Turning to `COC(=O)C(CC(C)C)NC(=O)CNC(=O)c1ccccc1C` (stereo not drawn), the AC50 is > 42 µM (inactive). For `CC1=C/C(=N\OS(=O)(=O)c2ccccc2)C(C(C)C)=CC1=O`, the AC50 is 0.86 µM.

Regarding `COc1cc2c(cc1OC)CN(C(=O)Cc1c(F)cccc1Cl)CC2`, the AC50 is > 42 µM (inactive). As to `COc1ccccc1-c1nc2ccccc2nc1-c1ccccc1OC`, the AC50 was > 42 µM (inactive). Next, `O=C(O)COc1ccc(Br)cc1/C=N\Nc1ccccn1`: > 42 µM (inactive). Next, `CC(NC(=O)CCc1nnc(-c2ccc(-c3ccccc3)cc2)o1)c1nc2ccccc2[nH]1` (stereo not drawn): > 42 µM (inactive).

For the molecule `CC(C)(C)c1ccc(C(=O)COC(=O)CN2C(=O)NC3(CCCC3)C2=O)cc1`, the AC50 was > 42 µM (inactive).

`CC1=CS(=O)(=O)CC1Sc1ncn[nH]1` (stereo not drawn): the AC50 is > 42 µM (inactive).

On to `Cc1ccc(NC(=O)CSCC(=O)Nc2ccccc2N2CCCC2)cc1`, for which the AC50 was > 42 µM (inactive). For the molecule `Cc1ccccc1-n1c(-c2cccnc2)n[nH]c1=S`, the AC50 is > 42 µM (inactive).

As to `CCOC(=O)c1cnc2c(OC)cccc2c1N1CCN(c2ccccc2OC)CC1`, the AC50 was > 42 µM (inactive). In the case of `COc1cc(C(=O)OCC(=O)NC(C)CCc2ccccc2)cc(OC)c1OC` (stereo not drawn), the AC50 was > 42 µM (inactive). As to `O=C(COC(=O)[C@@H]1CC(O)CN1S(=O)(=O)c1ccccc1[N+](=O)[O-])Nc1ccc2ccccc2c1` (stereo partly drawn), the AC50 was > 42 µM (inactive).

Consider `CCOc1ccc(C(=O)NCC2OCCc3ccccc32)cc1` (stereo not drawn), for which the AC50 was > 42 µM (inactive).

Regarding `Cc1cccc(N2C(=O)/C(=C/c3cccnc3)SC2=S)c1`, the AC50 is > 42 µM (inactive). For `CSc1ccc(CN2CCN(S(=O)(=O)Cc3ccccc3)CC2)cc1`, the AC50 is > 42 µM (inactive).

In the case of `C=CCSc1nnc2c(n1)[nH]c1c(C)cccc12`, the AC50 is > 42 µM (inactive).

Regarding `Nc1nnnn1CC(=O)N/N=C/c1cccs1`, the AC50 was > 42 µM (inactive). With `CCOC(=O)N1CCN(S(=O)(=O)c2ccc(C)c(C)c2)CC1`, the AC50 is > 42 µM (inactive). Regarding `CC1(C)CNc2cc([N+](=O)[O-])ccc2S1`, the AC50 is 27.7 µM. With `COc1ccccc1NC(NC(=O)c1ccco1)C(=O)c1ccccc1` (stereo not drawn), the AC50 was > 42 µM (inactive). On to `CS(=O)(=O)N(CC(=O)N1CCCCCC1)Cc1ccc(Cl)cc1`, for which the AC50 was > 42 µM (inactive). Turning to `O=C(O)c1ccc(N=C2NC(=O)C(CO)(CO)S2)cc1`, the AC50 was > 42 µM (inactive). With `Cc1ccc(C)c(NC(NC(=O)c2ccccn2)C(Cl)(Cl)Cl)c1` (stereo not drawn), the AC50 is > 42 µM (inactive).

In the case of `Cc1nn(C)c(Cl)c1CN1CCN(CCC(C)C)C(CCO)C1` (stereo not drawn), the AC50 is > 42 µM (inactive). For the molecule `CCC1SC2=NC(C)=C(C(=O)OCCOC)C(c3ccc(C(=O)OC)cc3)N2C1=O` (stereo not drawn), the AC50 was > 42 µM (inactive). On to `COc1cc(C(c2c(C)[nH][nH]c2=O)c2c(C)[nH][nH]c2=O)cc(OC)c1OC`, for which the AC50 is > 42 µM (inactive). In the case of `O=C(Nc1cccc(N=Cc2cc(Br)cc(Br)c2O)c1)c1ccco1` it was 2.81 µM. Regarding `Fc1ccc(-c2nnc3ccc(N4CCCC4)nn23)cc1`, the AC50 is > 42 µM (inactive).

For `O=C(CCn1cnnn1)Nc1ccc(Cl)cc1Cl`, the AC50 was > 42 µM (inactive). With `CCC(C)[C@H](NC(=O)OC(C)(C)C)C(=O)NCC1CCC(C(=O)N[C@@H](Cc2ccccc2)C(=O)O)CC1` (stereo partly drawn), the AC50 was > 42 µM (inactive).

For the molecule `COc1ccc(NC(=O)Nc2ccccc2C(=O)N2CCCC2)cc1`, the AC50 was > 42 µM (inactive).

In the case of `O=C(N/N=C/c1cccs1)c1cncc(Br)c1`, the AC50 was > 42 µM (inactive). As for `C=C1C(O)[C@@H]2O[C@]3(CC[C@H](/C=C/C(C)[C@@H]4CC(C)=CC5(O[C@H](C[C@@](C)(O)C(=O)O)CCC5O)O4)O3)CC[C@H]2O[C@@H]1C(O)CC(C)[C@H]1OC2(CCCCO2)CCC1C` (stereo partly drawn), the AC50 was 26 µM. `Cc1ccccc1-c1nnc(SCc2ccc(F)cc2)o1`: the AC50 was > 42 µM (inactive).

For `Cc1nn(C)c(C)c1-c1c(C#N)c(N)nc2c1CCCCCC2`, the AC50 was 16.9 µM. In the case of `CC(C)C/C(=N/O)c1c[nH]c2ccccc12`, the AC50 is > 42 µM (inactive). On to `Cc1ccc(/C(N)=N/OC(=O)/C=C/c2ccccc2)cc1`, for which the AC50 was > 42 µM (inactive). Consider `O=C(NCc1cccnc1)Nc1ccccc1`, for which the AC50 was > 42 µM (inactive). In the case of `CC(=O)Nc1cc2nn(-c3ccccc3)nc2cc1Cl`, the AC50 is > 42 µM (inactive). As to `CCOc1cc(NC(=O)c2cccs2)c(OCC)cc1NC(=O)CCC(=O)NCCN1CCOCC1`, the AC50 was > 42 µM (inactive). Consider `COc1ccc(N(C(=O)c2ccco2)C(C(=O)NC2CCCCC2)c2ccccc2)cc1` (stereo not drawn), for which the AC50 was > 42 µM (inactive). Next, `Cn1cc(Br)c(C(=O)Nc2nccs2)n1`: > 42 µM (inactive); `CC(C)(C)NC(=O)C(c1cccs1)N(Cc1cccs1)C(=O)c1ccc(CN2CCOCC2)o1` (stereo not drawn): > 42 µM (inactive); `CCCn1c(SC(C)C(=O)NCC2CCCO2)nc2sc(CC)cc2c1=O` (stereo not drawn): > 42 µM (inactive). On to `Cc1ccc(C(=O)NC(NC(=O)c2ccc(C)cc2)C(Cl)Cl)cc1`, for which the AC50 was > 42 µM (inactive). Next, `CC1=CC2=NC(=O)/C(=C\c3cc(C)n(-c4ccccc4)c3C)C(=N)N2O1`: > 42 µM (inactive); `Cc1ccc2nc(SCC(=O)Nc3cccc(S(N)(=O)=O)c3)[nH]c2c1`: > 42 µM (inactive); `CCOc1cc(-c2ccccc2)nc(N)n1`: > 42 µM (inactive). For the molecule `NC(=O)c1cccc2cc3ccccc3cc12`, the AC50 is > 42 µM (inactive). On to `O=C(c1cc2c(ccc3ccccc32)oc1=O)N1CCCC1`, for which the AC50 was > 42 µM (inactive). With `Cc1cccc2nc3ccccc3cc12`, the AC50 was > 42 µM (inactive). In the case of `CCOC(=O)c1c(CN2CCCCC2)n(C)c2cc(Br)c(O)c(CN(C)C)c12` it was > 42 µM (inactive); in that of `Cc1ccc(C)c(NC(=O)COC(=O)c2ccc3c(c2)OCO3)c1`, > 42 µM (inactive). For the molecule `CCOC(=O)c1c(C)[nH]c(O)c1C=Nc1ccccc1`, the AC50 is > 42 µM (inactive). In the case of `CCOCCn1c(-c2ccc(OC)cc2)nc2ccccc21` it was > 42 µM (inactive). With `COC(=O)c1sccc1NC(=O)CC1C(=O)NCCN1C(=O)Nc1ccc(F)cc1F` (stereo not drawn), the AC50 is > 42 µM (inactive). Regarding `COCCCNC(=O)c1cc(C(=O)c2c(-c3c(Cl)cccc3Cl)noc2C)c[nH]1`, the AC50 is > 42 µM (inactive). On to `O=C(O)c1ccc(Cl)c(NCc2cccs2)c1`, for which the AC50 was > 42 µM (inactive).

Consider `C/C(=N\N=C(/N)SC1CC(=O)N(c2cccc(Cl)c2)C1=O)c1cccs1` (stereo not drawn), for which the AC50 was > 42 µM (inactive). Consider `Cc1ccc(S(=O)(=O)Cc2ccc(C(=O)N3CCN(c4ccccn4)CC3)o2)cc1`, for which the AC50 was > 42 µM (inactive). As to `CCC(CC)NC(=O)c1oc2ccccc2c1COc1ccccc1`, the AC50 is > 42 µM (inactive). Consider `COc1ccc(CN2CCCCCC2)cc1`, for which the AC50 was > 42 µM (inactive). Consider `CC(=O)Nc1ccc(S(=O)(=O)N(C)CC(=O)Nc2ccc(Br)cc2F)cc1`, for which the AC50 is > 42 µM (inactive). For the molecule `C[C@]12CC[C@H]3C(=CCc4cc(O)ccc43)[C@@H]1CCC2=O`, the AC50 was > 42 µM (inactive). `Cc1cc(C(=O)OCC(=O)Nc2cccc(S(N)(=O)=O)c2)c2ccccc2n1`: the AC50 was > 42 µM (inactive). Next, `COc1ccc(CCNC(=O)C/C(C)=N/NC(=O)COc2ccc(C)cc2Br)cc1OC`: > 42 µM (inactive); `O=C(NCCCn1ccnc1)Nc1cccc2ccccc12`: > 42 µM (inactive); `Cc1ccc(-c2[nH]ncc2CNCCc2cnn(-c3ccccc3)c2)cc1C`: > 42 µM (inactive).

Consider `CC(Oc1ccccc1)C(=O)Nc1ccccc1O` (stereo not drawn), for which the AC50 was > 42 µM (inactive).

For the molecule `N#Cc1cc2c(nc1SC1CCCCC1O)CCCC2` (stereo not drawn), the AC50 is > 42 µM (inactive).

As for `COc1ccc(OCCC(=O)c2ccc(OC)cc2)cc1`, the AC50 was > 42 µM (inactive). In the case of `O=C(CC1(CC2=NS(=O)(=O)c3ccccc3N2)CCCC1)NCCc1ccccc1` it was > 42 µM (inactive); in that of `COc1ccccc1/C=C/C(=O)NC(=S)N1CCOCC1`, > 42 µM (inactive). Take `CC(=O)N1CC(=O)Nc2ccc(Cl)cc2C1c1ccccc1` (stereo not drawn): the AC50 is > 42 µM (inactive). In the case of `COc1ccc(/C=C(\C#N)C(=O)NCCCn2ccnc2)cc1`, the AC50 was > 42 µM (inactive). On to `CCOC(=O)C1=Nc2ccccc2C1=[N+]=[N-]`, for which the half-maximal activity concentration (AC50) is 36.7 µM. Next, `C=C1C2C[C@@]3([C@@H]1O)[C@@H](C[C@@H]2O)[C@@]12C4[C@@H]3C[C@@H]1[C@@](C)(CC[C@@H]2O)CN4CC`: > 42 µM (inactive).

For the origin of these results see PubChem BioAssay AID463204 (Broad Institute, 2010).
